Blank lines part the entries; values can stand above or below the compound they belong to.
Experiments:
22RV1 cells [1] = test: MTT antiproliferative assay, 22RV1 cells; type: cell-based; conditions: for IC50: MTT assay, exposure for 72 h
Method: (§1) PC3, C42B, 22RV1, and LNCAP cell lines were cultured in an atmosphere containing 5% CO2 at 37 °C, with RPMI-1640 medium with 10% foetal bovine serum, 100 U/ml penicillin and 0.1 mg/ml streptomycin. Cells were seeded at a density of 1500 per well in 96-well plates for 72 h. Then, 20 μL MTT (thiazolyl blue tetrazolium bromide) solution was added to each well, and incubated for 4 h at 37 °C. 150 μL DMSO was added to each well to dissolve the formazan after removing the liquid, the absorbance was determined at 570 nm.
To discovery novel anti-prostate cancer agents and tubulin polymerisation inhibitors, we evaluated the antiproliferative activity of all benzothiazole derivatives 9a∼9k and 12a∼12d against a prostate cancer cell line 22RV1 using the 3–(4,5-dimethyl-2-thiazolyl)-2,5-diphenyl-2-H-tetrazolium bromide (MTT) assay. Based on previous references, [5]-fluorouracil (5-Fu) and was usually selected as a reference drug in the MTT assay to evaluate the antiproliferative activity of synthetic benzothiazole derivatives[26]^,[27]. Therefore, 5-Fu was used as the control drug in this work. In addition, compound 4 was also the control drug to compare the antiproliferative activity.

[2] = test system: human cervical cancer cell line ME-180; set-up: method as in PMID 24332497; conditions: read-out: Cytotoxicity IC50, ME-180; cited from earlier work
[3] = Cytotoxicity against normal prostatic cell line RWPE-1; type: cell-based; conditions: RWPE-1 normal prostatic cells; normal human prostatic cell line
Method: as §1
(§2) Compound 12a was further examined for possible cytotoxicity against RWPE-1 (normal human prostatic cell line). […] To evaluate its antiproliferative activity against other prostate cancer cell lines, C42B, LNCAP and PC3 cells were selected to perform MTT assay.

[4] = test system: colchicine-binding site of β-tubulin; test: EBI competition assay in PC3 cells; type: cell-based; conditions: preincubation at 10 μM, Western blot
Method: 6-Well plates were seeded with PC3 cells for 24 h. Then, cells were incubated with compound 12a, colchicine or DMSO for 2 h and afterward treated with EBI ([…]) for 2 h. Then, the cells were harvested and lysed. Cell extracts were used for Western blotting analysis.
(§3) Cellular protein lysates were denatured in loading buffer at 100 °C prior to adding into SDS-PAGE. Proteins were transferred to nitrocellulose membranes, probed with indicated antibodies, and visualised by an enhanced chemiluminescence detection system. The western blotting bands were semi-quantified using Image J and adjusted for loading control.
In order to evaluate whether benzothiazole hybrid 12a directly binds to tubulin at the colchicine binding site, we carried out N,N′-ethylenebis(iodoacetamide) (EBI) competition assay in PC3 cells according to previously published references[29]^,[30]. EBI is an alkylating agent that has the property to specifically cross-link the Cys239 and the Cys354 residues of β-tubulin involved in the colchicine-binding site[31]. The occupancy of colchicine-binding site by tubulin polymerisation inhibitors could inhibit the formation of the EBI: β-tubulin adduct.

C42B cells = test: MTT antiproliferative assay, C42B cells; type: cell-based
Method: as §1, §2

PC3 cells [5] = test: DAPI staining, PC3 cells; type: cell-based; conditions: PC3 cells, 1, 2 and 4 μM, 48 h
Method: (§4) Cells were seeded on a 6-well plate (2 × 10^5/well) and treated with the test compound after the incubation for 24 h. Then, cells were stained by DAPI (4′,6-diamidino-2-phenylindole) in the dark for 30 min.

[6] = test system: microtubule network in PC3 cells; test: Immunofluorescence staining of microtubules in PC3 cells; type: cell-based; conditions: 48 h
Method: PC3 cells were seeded on the slices and incubated overnight. Then, cells were treated with different concentrations of 12a. After 48 h, slices were fixed by 4% paraformaldehyde for 15 min after washed by PBS for 3 times. 0.5% Triton-X-100 was added and shaked for 20 min. 0.1% BSA was used to block for 30 min and then removed. The slices were added β-tubulin antibody (1:100) and incubated overnight. Then slices were washed by PBST 3 times, bind with secondary antibody with FITC signal (1:500) in a dark. DAPI was used to stain for 3 min and then removed. After that, images were captured by Laser scanning confocal microscope (Nikon, Japan).
As the microtubule system played an important role in the maintenance of cell shape and basic cellular functions, an immunofluorescence staining assay was performed to study whether benzothiazole hybrid 12a could disrupt the microtubule dynamics in living cells.

PC3 cells [7] = test: MTT antiproliferative assay, PC3 cells; type: cell-based; conditions: Homo sapiens, PC-3
Method: as §1, §2

tubulin = test: In vitro tubulin polymerisation assay; type: biochemical; conditions: tubulin 5.6 mg/ml in PEM buffer, read-out: Tubulin polymerisation inhibition IC50
Method: Tubulin (5.6 mg/ml) was resuspended in PEM buffer (containing 80 mM PIPES, […], 1 mM EGTA, 10.2% glycerol, 0.5 mM MgCl2) and then was preincubated with compound 12a, colchicine or vehicle DMSO on ice. The reaction was monitored by a spectrophotometer in […] at 420 nm (excitation wavelength is 340 nm).
The in vitro tubulin polymerisation inhibition activity of compound 12a was evaluated because of its best antiproliferative activity results among all benzothiazole hybrids. When tubulin was incubated with the tested compound 12a, the increased tendency of the fluorescence intensity was obviously slowed down compared with the control.

[8] = test system: apoptosis-related proteins (Bcl-2 and Cleaved-parp); test: Western blot of apoptosis-related proteins, 22RV1 cells; type: cell-based; conditions: concentration-dependent
Method: as §3
(§5) Bcl-2 family proteins are key regulators of apoptosis and overexpression of the prominent pro-survival Bcl-2 family members like Bcl-2 is a common feature responsible for deregulation of apoptosis in prostate cancer cells. In order to investigate the apoptosis effects of compound 12a, the expression of apoptosis-related proteins (Bcl-2 and Cleaved-parp) were tested. As shown in the Figure 6(B), the expression level of Bcl-2 was decreased and the expression level of Cleaved-parp was increased in a concentration-dependent manner against prostate cancer (22RV1 cells and PC3 cells).

22RV1 cells [9] = test: DAPI staining, 22RV1 cells; type: cell-based; conditions: 22RV1 cells, 1, 2 and 4 μM, 48 h
Method: as §4

LNCAP cells = test: MTT antiproliferative assay, LNCAP cells; type: cell-based; conditions: Homo sapiens
Method: as §1, §2

[10] = test system: apoptosis-related proteins (Bcl-2 and Cleaved-parp); test: Western blot of apoptosis-related proteins, PC3 cells; type: cell-based; conditions: concentration-dependent
Method: as §3, §5

IC50 (22RV1 cells [1]; Homo sapiens, 22Rv1, 72 h): > 20 µM
Compound: COc1ccc(CN(C(=O)CSc2nc3ccccc3s2)c2ccc(Cl)c(Cl)c2)cc1 [Compound 9j, 2-(Benzo[d]thiazol-2-ylthio)-N-(3,4-dichlorophenyl)-N-(4-methoxybenzyl)acetamide]

IC50 (22RV1 cells [1]; Homo sapiens, 22Rv1, 72 h): > 20 µM
melting point: 109 to 110 °C
Compound: COc1ccc(CN(C(=O)CSc2nc3ccccc3s2)c2ccccc2)cc1 [Compound 9k, 2-(Benzo[d]thiazol-2-ylthio)-N-(4-methoxybenzyl)-N-phenylacetamide]

IC50 (22RV1 cells [1]; Homo sapiens, 22Rv1, 72 h): 11.8 ± 0.91 µM
Compound: COc1cc(N(Cc2ccc(Cl)nc2)C(=O)CSc2nc3ccccc3s2)cc(OC)c1OC [Compound 12c, 2-(Benzo[d]thiazol-2-ylthio)-N-((6-chloropyridin-3-yl)methyl)-N-(3,4,5-trimethoxyphenyl)acetamide]

IC50 (22RV1 cells [1]; Homo sapiens, 22Rv1, 72 h): 5.09 ± 0.62 µM
Compound: COc1cc(N(Cc2ccncc2)C(=O)CSc2nc3ccccc3s2)cc(OC)c1OC [Compound 12b, 2-(Benzo[d]thiazol-2-ylthio)-N-(pyridin-4-ylmethyl)-N-(3,4,5-trimethoxyphenyl)acetamide]

IC50 (22RV1 cells [1]; Homo sapiens, 22Rv1, 72 h): > 20 µM
Compound: COc1ccc(CN(C(=O)CSc2nc3ccccc3s2)c2ccc(C)cc2)cc1 [Compound 9i, 2-(Benzo[d]thiazol-2-ylthio)-N-(4-methoxybenzyl)-N-(p-tolyl)acetamide]

IC50 (22RV1 cells [1]; Homo sapiens, 22Rv1, 72 h): 6.93 ± 0.46 µM
Compound: COc1cc(N(Cc2ccc3ccccc3c2)C(=O)CSc2nc3ccccc3s2)cc(OC)c1OC [Compound 12d, 2-(Benzo[d]thiazol-2-ylthio)-N-(naphthalen-2-ylmethyl)-N-(3,4,5-trimethoxyphenyl)acetamide]

IC50 (22RV1 cells [1]; Homo sapiens, 22Rv1, 72 h): 2.13 ± 0.24 µM
IC50 (PC3 cells [7]): 2.04 µM
IC50 (tubulin): 2.87 µM
IC50 (LNCAP cells): 4.31 µM
Compound: COc1cc(N(Cc2c(C)noc2C)C(=O)CSc2nc3ccccc3s2)cc(OC)c1OC [Compound 12a, 2-(Benzo[d]thiazol-2-ylthio)-N-((3,5-dimethylisoxazol-4-yl)methyl)-N-(3,4,5-trimethoxyphenyl)acetamide]
IC50 at 72 h [3]: > 20 µM
Formation of the EBI: β-tubulin adduct [4]: prevented the formation of the EBI: β-tubulin adduct
IC50 (C42B cells): 2.81 µM
Morphological changes (DAPI staining) (PC3 cells [5]): characteristic apoptotic morphological changes were observed
Effect on interphase microtubules ([6]; 1 μM): moderately depolymerised interphase microtubules
Effect on interphase microtubules ([6]; 4 μM): much stronger depolymerisation effects
Expression level of Bcl-2 [8]: decreased
Expression level of Cleaved-parp [8]: increased
Morphological changes (DAPI staining) (22RV1 cells [9]): characteristic apoptotic morphological changes were observed
Expression level of Bcl-2 [10]: decreased
Expression level of Cleaved-parp [10]: increased

Further lines, the compound ahead of its results:

Compound: COc1ccc(CN(C(=O)CSc2nc3ccccc3s2)c2cc(OC)c(OC)c(OC)c2)cc1 [Compound 9h, 2-(Benzo[d]thiazol-2-ylthio)-N-(4-methoxybenzyl)-N-(3,4,5-trimethoxyphenyl)acetamide]
IC50 (22RV1 cells [1]; Homo sapiens, 22Rv1, 72 h): 5.24 µM

Compound: COc1cc(N(Cc2ccccc2)C(=O)CSc2nc3ccccc3s2)cc(OC)c1OC [Compound 9f, 2-(Benzo[d]thiazol-2-ylthio)-N-benzyl-N-(3,4,5-trimethoxyphenyl)acetamide]
IC50 (22RV1 cells [1]; Homo sapiens, 22Rv1, 72 h): 9.06 ± 0.17 µM

Compound: COc1cccc(CN(C(=O)CSc2nc3ccccc3s2)c2cc(OC)c(OC)c(OC)c2)c1 [Compound 9g, 2-(Benzo[d]thiazol-2-ylthio)-N-(3-methoxybenzyl)-N-(3,4,5-trimethoxyphenyl)acetamide]
IC50 (22RV1 cells [1]; Homo sapiens, 22Rv1, 72 h): 7.37 ± 0.56 µM

Compound: O=c1[nH]cc(F)c(=O)[nH]1 [Compound 5-FU, [5]-fluorouracil, reference compound]
IC50 (22RV1 cells [1]): 18.3 ± 1.27 µM

Compound: COc1cc(N(Cc2cccc(Cl)c2)C(=O)CSc2nc3ccccc3s2)cc(OC)c1OC [Compound 9b, 2-(Benzo[d]thiazol-2-ylthio)-N-(3-chlorobenzyl)-N-(3,4,5-trimethoxyphenyl)acetamide]
Fold activity loss when p-Br replaced with m-Cl (9d vs. 9b) (22RV1 cells [1]; 22RV1 cells, ratio of IC50 values): over 3 fold
IC50 (22RV1 cells [1]; Homo sapiens, 22Rv1, 72 h): > 12 µM
IC50 (22RV1 cells [1]): 19.1 ± 1.15 µM

Compound: COc1cc(N(Cc2ccc(Cl)cc2)C(=O)CSc2nc3ccccc3s2)cc(OC)c1OC [Compound 9c, 2-(Benzo[d]thiazol-2-ylthio)-N-(4-chlorobenzyl)-N-(3,4,5-trimethoxyphenyl)acetamide]
IC50 (22RV1 cells [1]; Homo sapiens, 22Rv1, 72 h): > 12 µM
IC50 (22RV1 cells [1]): 12.2 ± 0.58 µM

Compound: COc1cc(N(Cc2ccc(F)cc2)C(=O)CSc2nc3ccccc3s2)cc(OC)c1OC [Compound 9a, 2-(Benzo[d]thiazol-2-ylthio)-N-(4-fluorobenzyl)-N-(3,4,5-trimethoxyphenyl)acetamide]
IC50 (22RV1 cells [1]; Homo sapiens, 22Rv1, 72 h): 16.2 ± 0.84 µM

Compound: COc1cc(N(Cc2ccc(Br)cc2)C(=O)CSc2nc3ccccc3s2)cc(OC)c1OC [Compound 9d, 2-(Benzo[d]thiazol-2-ylthio)-N-(4-bromobenzyl)-N-(3,4,5-trimethoxyphenyl)acetamide]
IC50 (22RV1 cells [1]; Homo sapiens, 22Rv1, 72 h): 6.2 ± 0.71 µM

Compound: CCOc1ccc2nc(N3CN(c4ccccc4)c4ccccc4C3=O)sc2c1 [Compound 3]
IC50 [2]: 4.01 µM

Compound: COc1cc(N(Cc2ccc(C)cc2)C(=O)CSc2nc3ccccc3s2)cc(OC)c1OC [Compound 9e, 2-(Benzo[d]thiazol-2-ylthio)-N-(4-methylbenzyl)-N-(3,4,5-trimethoxyphenyl)acetamide]
IC50 (22RV1 cells [1]; Homo sapiens, 22Rv1, 72 h): 8.25 ± 0.43 µM

Compound: COc1ccc(CN(C(=O)CSc2nc3ccccc3o2)c2cc(OC)c(OC)c(OC)c2)cc1 [Compound 4, reference compound]
IC50 (22RV1 cells [1]; Homo sapiens, 22Rv1): 6.48 ± 0.25 µM
IC50 (PC3 cells [7]): 3.53 µM
IC50 (LNCAP cells): 10 µM

— publication PMC7178834, “Antiproliferative benzothiazoles incorporating a trimethoxyphenyl scaffold as novel colchicine site tubulin polymerisation inhibitors” (Journal of Enzyme Inhibition and Medicinal Chemistry, 2020)
